Measured values as given in US9115101B2 (Genentech, Inc., priority 2012, dated 2015).

Target: T1, RORc ligand binding domain (Homo sapiens, UniProt P51449)
T1 construct: host or cells: E. coli
T1 sequence (P51449 269-508 limits assumed): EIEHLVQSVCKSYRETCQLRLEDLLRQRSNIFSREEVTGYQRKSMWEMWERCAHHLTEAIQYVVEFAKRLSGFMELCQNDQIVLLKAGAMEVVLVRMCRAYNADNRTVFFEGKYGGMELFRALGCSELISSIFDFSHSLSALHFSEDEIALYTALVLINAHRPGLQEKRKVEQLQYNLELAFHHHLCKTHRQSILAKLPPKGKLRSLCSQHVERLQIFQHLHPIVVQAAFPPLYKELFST
Test: In Vitro RORc Ligand Binding Assay (25-[3H]hydroxycholesterol radioligand filtration)
Conditions: In Vitro RORc Ligand Binding Assay; Table 4; read-out: RORc IC50

Compound | IC50 [nM]
CC(=O)N1CCN(c2ccc(CN3C(C)(C)CCC(c4ccccc4)S3(=O)=O)c(F)c2)CC1 (single isomer, unassigned) [Example 13, 1-{4-[4-(3,3-Dimethyl-1,1-dioxo-6-phenyl-[1,2]thiazinan-2-ylmethyl)-3-fluoro-phenyl]-piperazin-1-yl}-ethanone] | 142
CC(=O)N1CCN(c2ccc(CN3[C@@H](C)CCC(c4ccccc4)S3(=O)=O)cc2C)CC1 (single isomer, unassigned) [Example 130] | 72
CC(=O)N1CCN(c2ccc(CN3[C@@H](C)CCC(c4ccc(Cl)cc4)S3(=O)=O)c(F)c2)CC1 (single isomer, unassigned) [Example 174] | 77
CC(=O)N1CCN(c2ccc(CN3[C@@H](C)CCC(c4ccccc4)S3(=O)=O)cc2Cl)CC1 (single isomer, unassigned) [Example 164] | 115
C[C@H]1CCC(c2ccccc2)S(=O)(=O)N1Cc1ccc(C(=O)N2CCCC2CO)cc1 (stereo partly drawn) [Example 290, (2-Hydroxymethyl-pyrrolidin-1-yl)-[4-((3S)-methyl-1,1-dioxo-6-phenyl-[1,2]thiazinan-2-ylmethyl)-phenyl]-methanone] | 1500
C[C@H](O)C(=O)N1CCN(c2ccc(CN3CCCCC(c4ccccc4)S3(=O)=O)c(F)c2)CC1 (single isomer, unassigned) [Example 305, 1-{4-[4-(1,1-Dioxo-7-phenyl-[1,2]thiazepan-2-ylmethyl)-3-fluoro-phenyl]-piperazin-1-yl}-2-hydroxy-propan-1-one] | 165
C[C@H]1CCC(c2ccccc2)S(=O)(=O)N1Cc1ccc(C(=O)N2CCC(CO)CC2)cc1 (stereo partly drawn) [Example 278, (4-Hydroxymethyl-piperidin-1-yl)-[4-((3S)-methyl-1,1-dioxo-6-phenyl-[1,2]thiazinan-2-ylmethyl)-phenyl]-methanone] | 1100
C[C@H]1CCC(c2ccccc2)S(=O)(=O)N1Cc1ccc(N2CCC(n3cccn3)CC2)cc1F (stereo partly drawn) [Example 209, (3S)-2-[2-Fluoro-4-(4-pyrazol-1-yl-piperidin-1-yl)-benzyl]-3-methyl-6-phenyl-[1,2]thiazinane 1,1-dioxide] | 121
CC(=O)N1CCN(c2ccc(CN3[C@@H](C)CC(c4ccccc4)S3(=O)=O)c(F)c2)CC1 (single isomer, unassigned) [Example 64] | 709

More lines, now with the values ahead:

IC50 [nM] | Compound
4360 | C[C@H]1CCC(c2ccccc2)S(=O)(=O)N1Cc1ccc(C(=O)N2CCn3nccc3C2)cc1 (stereo partly drawn) [Example 373, (6,7-Dihydro-4H-pyrazolo[1,5-a]pyrazin-5-yl)-[4-((3S)-methyl-1,1-dioxo-6-phenyl-[1,2]thiazinan-2-ylmethyl)-phenyl]-methanone]
3480 | C[C@H]1CCC(c2ccccc2)S(=O)(=O)N1Cc1ccc(C(=O)NC2(C#N)CCC2)cc1 (stereo partly drawn) [Example 369, N-(1-Cyano-cyclobutyl)-4-((3S)-methyl-1,1-dioxo-6-phenyl-[1,2]thiazinan-2-ylmethyl)-benzamide]
61 | CC(=O)N1CCN(c2ccc(CN3[C@@H](C)CCC(c4ccccc4)S3(=O)=O)c(F)c2)C[C@H]1CO (stereo partly drawn) [Example 378, 1-{(S)-4-[3-Fluoro-4-((3S)-methyl-1,1-dioxo-6-phenyl-[1,2]thiazinan-2-ylmethyl)-phenyl]-2-hydroxymethyl-piperazin-1-yl}-ethanone]
522 | CC(=O)N1CCN(c2ccc(CN3[C@@H](C)CCC(c4ccccc4)S3(=O)=O)c(F)c2)C[C@H]1C(N)=O (stereo partly drawn) [Example 381, (S)-1-Acetyl-4-[3-fluoro-4-((3S)-methyl-1,1-dioxo-6-phenyl-[1,2]thiazinan-2-ylmethyl)-phenyl]-piperazine-2-carboxylic acid amide]
287 | CCCNC(=O)[C@@H]1CN(c2ccc(CN3[C@@H](C)CCC(c4ccccc4)S3(=O)=O)c(F)c2)CCN1C(C)=O (stereo partly drawn) [Example 395, (S)-1-Acetyl-4-[3-fluoro-4-((3S)-methyl-1,1-dioxo-6-phenyl-[1,2]thiazinan-2-ylmethyl)-phenyl]-piperazine-2-carboxylic acid propylamide]
